This is an account of results in patent US20200199174A1, “NOVEL FLUORESCENT LABELING METHOD” (priority 2017, published 2020).

The conditions of data set [1]: literature (Zheng et al. 2014); cited from earlier work.
For data set [2], the system named is 5D4. Nature of the data set: Fluorescence change characteristics of fluorophore-DNP pair in presence and absence of 5D4. In kind it is biochemical, mouse. The following applies: recombinant 5D4 expressed/purified in E. coli. As to the method:
The anti-DNP scFv was expressed and purified as a fusion protein of maltose-binding protein. Escherichia coli BL21 (DE3) was transformed with the pMalc5E vector (pMalc5E-scFv) into which the purification object scFv sequence was introduced, and was cultured overnight on an LB medium plate including 100 μg/mL of ampicillin. A single colony was picked up and cultured overnight in 5 mL of a liquid LB medium including 100 μg/mL of ampicillin, and 1 mL of the resultant culture liquid was transferred to 100 mL of LB medium including 100 μg/mL of ampicillin. Shake culturing was performed at 200 rpm and a temperature of 37° C. until an optical density at 600 nm of 0.8 was reached, and after shake culturing was performed for 30 minutes at 15° C., IPTG was added to give a final concentration of 0.5 mM, and shake culturing was continued overnight. The E. coli were recovered after culturing and were disrupted using a sonicator. […] An eluate was replaced with PBS, and yield was quantified by the Bradford method, after which the eluate was subjected to the measurements described below.
RNA was extracted from the hybridomas of the resultant four clones, and cDNA fragments of the variable regions of the light chains and heavy chains of monoclonal antibodies were obtained by reverse transcription. The cDNA fragments of the variable regions of the light chains and heavy chains were connected via a linker sequence by overlap PCR, and scFv constructs were constructed only from subclones (4E10 and 5D4) derived from wells 1E10 and 3B12, respectively. […] The nucleic acid sequence of the cDNA sequence coding for 5D4 was identified by sequencing (SEQ ID NO: 8), an amino acid sequence determined from the result thereof was analyzed using the IMGT database (http://www.imgt.org/), and a […] region was specified (FIG. 4).
This fluorescence characteristic is similar to that of Cy5 dye, which is widely used in fluorescence imaging in cells. In the presence of 5D4, the fluorescence intensity of 6SiR-DNP was increased by a factor of 98 relative to the fluorescence intensity thereof in the absence of 5D4 (FIG. 6B). When fluorescence quantum yield of 6SiR-DNP in a state in which 6SiR-DNP is bound to 5D4 was measured, the fluorescence quantum yield in the presence of an excess of 5D4 was 0.57. This value for the fluorescence quantum yield is large, and is equal to or greater than that of Cy5 (quantum yield=0.2-0.4) and Cy5.5 (quantum yield=0.24), which are also highly versatile fluorescent dyes in cell labeling experiments (Q. Zheng et al., Ultra-stable organic fluorophores for single-molecule research. Chem Soc Rev 43, 1044-1056 (2014).).

For data set [3], the system named is V94A mutant. Nature of the data set: Dissociation rate of alanine-scanning mutant and probe (competition experiments with DNP). The format is binding, mouse. An excerpt:
(§1) An amino acid mutation was introduced into an MBP-scFv protein coding region by circular PCR with pMalc5E-5D4 as a template, using a thermostable polymerase KOD Plus (TOYOBO) and forward and reverse primers including a codon modified to correspond to the desired amino acid mutation. The resultant linear PCR product was circularized using a Ligation Kit Version 2 (TAKARA), and an MBP-scFv mutant expression construct was obtained.
(§2) A flow channel in a stopped-flow apparatus (Bio-logic) was filled with a pretreatment liquid in which 1% w/v gelatin was dissolved in a phosphate buffer solution (pH 7.4) (PBS), and blocking was performed by leaving the apparatus at room temperature for at least 30 minutes, after which the flow channel was thoroughly washed with Milli-Q water. Using the apparatus, PBS in which MBP-5D4 or a variant thereof at a concentration of 100 nM or less and a probe at a concentration of 1 μM were dissolved, and PBS in which 100 μM DNP as a competitive substance was dissolved were mixed at a 1:1 ratio, and a fluorescence change was measured. At this time, the excitation/fluorescence wavelengths used were 510 nm/529-556 nm for the DCF probe and 650 nm/672-712 nm for the SiR probe, and measurement was performed under conditions of a temperature of 25-27C. […]

In data set [4] the test system is 5D4 (Y96F). The experiment in a line: Dissociation rate constant of anti-DNP scFv mutant and probe (stopped-flow, competition with DNP). In kind it is binding, mouse.
Excerpt: as §1, §2

The test system of data set [5] is MBP-5D4. The experiment in a line: Dissociation rate constant of anti-DNP scFv and probe (stopped-flow, competition with DNP). The following applies: 6DCF-DNP and 5D4. The format is binding, mouse. As to the method:
A flow channel in a stopped-flow apparatus (Bio-logic) was filled with a pretreatment liquid in which 1% w/v gelatin was dissolved in a phosphate buffer solution (pH 7.4) (PBS), and blocking was performed by leaving the apparatus at room temperature for at least 30 minutes, after which the flow channel was thoroughly washed with Milli-Q water. Using the apparatus, PBS in which MBP-5D4 or a variant thereof at a concentration of 100 nM or less and a probe at a concentration of 1 μM were dissolved, and PBS in which 100 μM DNP as a competitive substance was dissolved were mixed at a 1:1 ratio, and a fluorescence change was measured. At this time, the excitation/fluorescence wavelengths used were 510 nm/529-556 nm for the DCF probe and 650 nm/672-712 nm for the SiR probe, and measurement was performed under conditions of a temperature of 25-27C. A dissociation rate constant koff was calculated by fitting the fluorescence intensity I(t) observed with respect to time t using formula (1) below (FIG. 13 and Table 1).
I(t)=c1·e^−k^off^t+c2·t+c3 Formula (1):
In the formula cn (n=1-3) is a constant.

Data set [6] has as its system 5D4 fusion protein with TagRFP in HEK293T cells. The experiment in a line: Expression test of anti-DNP scFv in cultured cells, fluorescent labeling of cytoplasm. The following applies: 1 μM, 10 minutes room temperature, washed with HBS, HEK293T cells expressing TagRFP-5D4. In kind it is cell-based. As to the method:
HEK293T cells and HeLa cells were cultured in Dulbecco's Modified Eagle's Medium (DMEM, Wako) including 10% fetal bovine serum (FBS, SIGMA) at a carbon dioxide concentration of 5% and a temperature of 37° C.
Gene transfer into HeLa cells was performed using lipofection. For the HeLa cells under culture in a 24-well dish, 25 μL of Opti-MEM I (GIBCO) to which 0.5 μg of a plasmid had been added was added to a mixed solution of 2 μL of Lipofectamine 2000 (Invitrogen) and 25 μL of Opti-MEM I and incubated for five minutes at room temperature. This mixture was added to 500 μL of a medium 90-100% confluent with HEK293T cells and HeLa cells, and culturing was performed at 37° C. at a carbon dioxide concentration of 5%. Cell concentration was diluted to 1/10 5 to 8 hours after transfection, and cells were re-seeded on a glass dish. Cells were subjected to various imaging experiments after 24 hours had passed since transfection.
The 5D4 clone for which a fluorescence-increasing effect of the scFv on the fluorophore-DNP pair was observed was expressed in HEK293T cells as a fusion protein with the fluorescent protein TagRFP, and the state of expression of the scFv in the cells or the propriety of fluorescent labeling of cytoplasm by the fluorophore-DNP pair was evaluated. […]

Take `CCN1/C(=C/C=C/C=C/C2=[N+](CCCCCC(=O)O)c3ccc(S(=O)(=O)O)cc3C2(C)C)C(C)(C)c2cc(S(=O)(=O)[O-])ccc21` [Cy5]: the quantum yield in data set [1] is 0.2-0.4.

For the compound `CN(CC(=O)NCCOCCOCCNc1ccc([N+](=O)[O-])cc1[N+](=O)[O-])C(=O)c1ccccc1-c1c2cc(Cl)c(=O)cc-2oc2cc(O)c(Cl)cc12` [DCF-DNP, 2-(2,7-dichloro-6-hydroxy-3-oxo-3H-xanthene-9-yl)-N-(2-((2-(2-(2-((2,4-dinitrophenyl)amino)ethoxy)ethoxy)ethyl)amino)-2-oxoethyl)-N-methylbenzamide], in data set [2], the “increase in fluorescence intensity” value was “about 10 times”.

For the compound `O=C(NCCOCCOCCNc1ccc([N+](=O)[O-])cc1[N+](=O)[O-])c1ccc(C(=O)O)c(-c2c3cc(Cl)c(=O)cc-3oc3cc(O)c(Cl)cc23)c1` [Probe 6DCF-DNP, 2-(2,7-dichloro-6-hydroxy-3-oxo-3H-xanthene-9-yl)-4-((2-(2-(2-((2,4-dinitrophenyl)amino)ethoxy)ethoxy)ethyl)carbamoyl)benzoate], the dissociation rate in data set [3] (V94A mutant and 6DCF-DNP) is 0.31 s⁻¹; in data set [4] (Y96F mutant) it was 1.1 s⁻¹. In addition, the “rate increase relative to the original rate” value in data set [3] (V94A mutant and 6DCF-DNP vs original 5D4) is given as 25 times. Moreover, in data set [4] (Y96F mutant and 6DCF-DNP vs original 5D4), the “dissociation rate made faster relative to original” value is reported as 100 times. In data set [5], the “dissociation rate constant (koff) for a fluorescence-OFF state” value worked out at 0.014 s⁻¹.

On to `CC(=O)Oc1cc2c(cc1F)C1(OC(=O)c3ccc(C(=O)NCCOCCOCCNc4ccc([N+](=O)[O-])cc4[N+](=O)[O-])cc31)c1cc(F)c(OC(C)=O)cc1O2` [Probe 6OGdiac-DNP, 6-((2-(2-(2-((2,4-dinitrophenyl)amino)ethoxy)ethoxy)ethyl)carbamoyl)-2′,7′-difluoro-3-oxo-3H-spiro[isobenzofuran-1,9′-xanthene]-3′,6′-diyl diacetate], for which the “green fluorescence in cells” value in data set [6] is recorded as “confirmed only in the cytoplasm of TagRFP-positive HEK293T cells”.

On to Cy5.5, for which the quantum yield in data set [1] is listed as 0.24.
